According to patent US20060276433A1, “Hydrazone derivative” (priority 2003, published 2006):

Columns and labels:
[1] = target: T1, amyloid β-protein (human, 1-40) (Homo sapiens, UniProt P05067); assay: Effect of drugs on the amyloid formation of amyloid β-protein (Thioflavine T method); type: biochemical; details: read-out: IC50 value (50% inhibition concentration of amyloid formation)
Experimental: Thereafter, the quantity of amyloid formation was measured by the Thioflavine T method (Naiki et al., Lab Invest, 65, 104-110, 1991). The measured value was converted to a relative value (%) based on the quantity of amyloid formation in the drug-non-added control group, and then 50% inhibition concentration (IC50 value) of amyloid formation was calculated.

[2] = tested on: amyloid (senile plaque) in human Alzheimer disease brain sections; assay: Specific binding to amyloid in Alzheimer disease brain sections (fluorescence microscopy); details: 50 μM in TBS, formalin-fixed human Alzheimer disease brain sections, fluorescence microscope
Experimental: Specific Binding to Amyloid
The compound of Example 21 having fluorescence was dissolved in TBS at a concentration of 50 μM and incubated with formalin-fixed human Alzheimer disease brain sections (purchased from BioChain). Thereafter, the sections were washed with saturated lithium carbonate/40% ethanol, dried and then observed under a fluorescence microscope.
Thus, it was shown that the compound of the present invention can specifically bind to amyloid in the Alzheimer brain.

[3] = target: T1, amyloid β-protein (human, 1-40); assay: Effect on amyloid formation of various amyloid forming proteins (Thioflavine T method): Aβ1-40; type: biochemical; details: Aβ1-40 10 μM, PBS(−), room temperature, sampled next day; read-out: IC50 (50% inhibition concentration of amyloid formation), Aβ1-40
[4] = target: Amyloid β-protein (human, 1-42) (Homo sapiens, UniProt P05067); assay: Effect on amyloid formation of various amyloid forming proteins (Thioflavine T method): Aβ1-42; type: biochemical; details: Aβ1-42 10 μM, PBS(−), room temperature, sampled next day; read-out: IC50 (50% inhibition concentration of amyloid formation), Aβ1-42
[5] = target: T2, Amyrin (Homo sapiens, UniProt P10997); assay: Effect on amyloid formation of various amyloid forming proteins (Thioflavine T method): Amyrin; type: biochemical; details: Amyrin 10 μM, PBS(−), room temperature, sampled next day; read-out: IC50 (50% inhibition concentration of amyloid formation), Amyrin
T2 construct: Amyrin (10 μM; purchased from Bachem), as an amyloid forming protein; purchased Bachem
T2 sequence (P10997 34-70 limits assumed): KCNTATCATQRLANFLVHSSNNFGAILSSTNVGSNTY

[6] = target: partial fragment of prion protein (PrP 118-135) (Homo sapiens, UniProt P04156); assay: biochemical
[7] = 15 μM amyloid β-protein (human, 1-40), PBS(−), room temperature, 1 day, drug 1.6, 8 or 40 μM

T1 sequence (P05067 18-40): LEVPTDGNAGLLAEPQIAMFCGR
Chain of Amyloid β-protein (human, 1-42) (P05067 18-42): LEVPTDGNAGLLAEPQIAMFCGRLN

In the case of `Nc1c(/N=N/c2ccc(-c3ccc(/N=N/c4cc(S(=O)(=O)O)c5ccccc5c4N)cc3)cc2)cc(S(=O)(=O)O)c2ccccc12` [Congo Red, Congo red, reference compound], the IC50 [1, 7] is reported as 870 nM.

`CC(=C(C#N)C#N)c1ccc2cc(N(C)C)ccc2c1` [DDNP] showed an IC50 [1] of 3230 nM.

For `Cc1ccc2nc(-c3ccc(N/N=C/c4ccncc4)cc3)sc2c1` [Example 21, 4-Pyridinecarboxyaldehyde 4-(6-methylbenzothiazol-2-yl)phenylhydrazone], the “Fluorescence binding to amyloid in brain sections” value [2] was “accumulation of fluorescence was found in the senile plaque”.

`C(=NNc1ccc(-c2cnco2)cc1)c1ccncc1` [Example 3, 4-Pyridinecarboxyaldehyde 4-(oxazol-5-yl)phenylhydrazone] gave an IC50 [1, 7] of 2940 nM, an IC50 [3] of 1160 nM and an IC50 [4] of 700 nM. The IC50 [5] was 2080 nM and the IC50 [6] was 1970 nM.
